ChEMBL document CHEMBL1138983, “Design, synthesis, and evaluation of novel 6-chloro-/fluorochromone derivatives as potential topoisomerase inhibitor anticancer agents” (2006)

Experiments:
[1] = tested on: Ehrlich; test: Cytotoxicity against Ehrlich ascites carcinoma cells at 500 ug/ml; format: functional, Mus musculus
[2] = tested on: Ehrlich; test: Cytotoxicity against Ehrlich ascites carcinoma cells at 250 ug/ml; format: functional, Mus musculus
[3] = tested on: Mus musculus; test: Effect on weight variation in Ehrlich carcinoma bearing Swiss Albino mice 9 days post dose administered ip; format: functional
[4] = tested on: Mus musculus; test: Median survival time in Ehrlich carcinoma bearing Swiss Albino mice 9 days post dose administered ip; format: functional
[5] = tested on: Mus musculus; test: Increase in life span in Ehrlich carcinoma bearing Swiss Albino mice 9 days post dose administered ip; format: functional
[6] = tested on: Ehrlich; test: Cytotoxicity against Ehrlich ascites carcinoma cells at 125 ug/ml; format: functional, Mus musculus
[7] = tested on: Mus musculus; test: Effect on weight variation in Ehrlich carcinoma bearing Swiss Albino mice 9 days post dose at 3.5 mg/kg, ip; format: functional, organism-based; parameters: dose 3.5 mg/kg
[8] = tested on: Mus musculus; test: Median survival time in Ehrlich carcinoma bearing Swiss Albino mice 9 days post dose at 3.5 mg/kg, ip; format: functional, organism-based; parameters: dose 3.5 mg/kg
[9] = tested on: Mus musculus; test: Increase in life span in Ehrlich carcinoma bearing Swiss Albino mice 9 days post dose at 3.5 mg/kg, ip; format: functional, organism-based; parameters: dose 3.5 mg/kg

Compound	Activity [1] [%]	Activity [2] [%]	Activity [3] [%]	MST [4] [days]	Activity [5] [%]	Activity [6] [%]	Activity [7] [%]	MST [8] [days]	Activity [9] [%]
O=Cc1c(N2CCOCC2)oc2ccc(Cl)cc2c1=O	100	100	-16.81	12	23.1	60	–	–	–
CISPLATIN	–	–	–	–	–	–	-17.3	17.3	75.4
CN1CCN(c2oc3ccc(Cl)cc3c(=O)c2C=O)CC1	60	60	–	–	–	50	–	–	–
CN1CCN(c2cc3oc(N4CCN(C)CC4)c(C=O)c(=O)c3cc2F)CC1	20	0	–	–	–	0	–	–	–
O=Cc1c(N2CCCC2)oc2ccc(Cl)cc2c1=O	100	100	–	–	–	90	–	–	–
O=Cc1c(N2CCCCC2)oc2cc(N3CCCCC3)c(F)cc2c1=O	100	100	-9.5	11.6	17.9	100	–	–	–
O=Cc1c(N2CCCCC2)oc2ccc(Cl)cc2c1=O	100	100	–	–	–	100	–	–	–
O=Cc1c(N2CCOCC2)oc2cc(N3CCOCC3)c(F)cc2c1=O	70	0	-15.89	11.14	16.9	0	–	–	–
